Converted amounts (≈) assume the structure as drawn. Read-outs that look alike come from different tables or passages of the source. Numbered stars: 1 amine (or outer) side, 2 acyl side, 3 side chain; on linkers, the order of the positions; unused ones are H or OH. Bridge positions count the residues as written; N and C are the ends. Side chains are listed from the residue outwards. Peptide text beside a SMILES is read from it. * marks the point of attachment. C20 diacid = O=C(O)CCCCCCCCCCCCCCCCCCC(=O)*; γGlu = O=C(O)[C@H](CCC(=O)[*:2])N[*:1]
Experiments:
[1] = target: T1, human calcitonin (a) receptor in BHK570 cells (Homo sapiens, UniProt P30988); assay: ASSAY (II)a functional assay, human calcitonin receptor (CRE luciferase); format: cell-based; conditions: read-out: hCTR funct. EC50
T1 construct: expressed in transfected cells
T1 sequence (P30988 25-474): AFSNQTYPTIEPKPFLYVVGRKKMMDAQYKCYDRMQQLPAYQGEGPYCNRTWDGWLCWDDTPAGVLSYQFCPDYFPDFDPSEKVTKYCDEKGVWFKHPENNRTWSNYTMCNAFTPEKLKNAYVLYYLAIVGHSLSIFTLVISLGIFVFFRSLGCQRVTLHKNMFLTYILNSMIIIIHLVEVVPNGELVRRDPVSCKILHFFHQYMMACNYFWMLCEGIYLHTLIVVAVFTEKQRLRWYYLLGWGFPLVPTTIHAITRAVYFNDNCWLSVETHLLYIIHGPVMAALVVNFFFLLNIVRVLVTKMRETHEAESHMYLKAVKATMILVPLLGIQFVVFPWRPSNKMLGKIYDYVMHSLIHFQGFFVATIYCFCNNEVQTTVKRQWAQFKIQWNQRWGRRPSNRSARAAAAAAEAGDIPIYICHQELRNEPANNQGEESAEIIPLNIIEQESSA
In short: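 BHK CRE-luc cells, calcitonin (a) receptor ± RAMP-3 (amylin 3(a)); overnight seeding, 37° C/5% CO2. 3 h ligand exposure, DMEM/10% FBS/10 mM Hepes pH 7.4. LucLite 30 min RT; luminescence (SPC).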

[2] = ASSAY (IV) determination of solubility; format: physicochemical
In short: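 Dissolve polypeptide in water ([…] stock); combine 1:1 with each 100 mM buffer (glycylglycine pH 3.0/4.0/5.0; bistrispropane pH 6.0/6.5/7.0/7.5/8.0); hold 18 hours at room temperature; centrifuge; quantify polypeptide by UPLC.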

[3] = target: T2, human calcitonin receptor (Homo sapiens, UniProt P30988); assay: ASSAY (VII) binding to the human calcitonin receptor (SPA, 125I-Calcitonin); conditions: read-out: hCTR bind IC50;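 further: cell membranes (35 ng/µL) combined with SPA beads in 40 µL of pH 7.4 Hepes buffer, 384-well format, signal counted on a TopCounter instrument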
T2 construct: expressed in transfected cells
T2 sequence (P30988 25-474): T1 sequence (P30988 25-474)

[4] = bistrispropane buffer, pH 6.5, read-out: Solubility pH 6.5 Concentration
[5] = bistrispropane buffer, pH 7.5, read-out: Solubility pH 7.5 Concentration
[6] = bistrispropane buffer, pH 6.0, read-out: Solubility pH 6.0 Concentration
[7] = bistrispropane buffer, pH 7.0, read-out: Solubility pH 7.0 Concentration
[8] = bistrispropane buffer, pH 8.0, read-out: Solubility pH 8.0 Concentration
[9] = glycylglycine buffer, pH 3.0, read-out: Solubility pH 3.0 Concentration
[10] = glycylglycine buffer, pH 4.0, read-out: Solubility pH 4.0 Concentration
[11] = glycylglycine buffer, pH 5.0, read-out: Solubility pH 5.0 Concentration

SMILES | EC50 [1] | solubility at 18 h [2, 4] | solubility at 18 h [2, 5] | solubility at 18 h [2, 6] | solubility at 18 h [2, 7] | solubility at 18 h [2, 8] | solubility at 18 h [2, 9] | solubility at 18 h [2, 10] | solubility at 18 h [2, 11] | IC50 [3]
CC[C@H](C)[C@H](NC(=O)[C@H](C)NC(=O)CNC(=O)[C@H](Cc1ccccc1)NC(=O)[C@H](CC(N)=O)NC(=O)[C@@H]1CCCN1C(=O)[C@H](CO)NC(=O)[C@H](CO)NC(=O)[C@H](Cc1c[nH]cn1)NC(=O)[C@H](CCCNC(=N)N)NC(=O)[C@H](CC(C)C)NC(=O)[C@H](Cc1ccccc1)NC(=O)[C@H](Cc1c[nH]cn1)NC(=O)[C@H](C)NC(=O)[C@H](CC(C)C)NC(=O)[C@H](CCCNC(=N)N)NC(=O)[C@H](CCC(N)=O)NC(=O)[C@@H](NC(=O)[C@H](C)NC(=O)[C@@H]1CSSC[C@H](NC(=O)[C@@H](N)CCCCNC(=O)CC[C@H](NC(=O)CCCCCCCCCCCCCCCCCCC(=O)O)C(=O)O)C(=O)N[C@@H](CC(N)=O)C(=O)N[C@@H]([C@@H](C)O)C(=O)N[C@@H](C)C(=O)N[C@@H]([C@@H](C)O)C(=O)N1)[C@@H](C)O)C(=O)N1CCC[C@H]1C(=O)N[C@@H](CO)C(=O)N[C@@H](CO)C(=O)N[C@H](C(=O)N[C@@H](CC(N)=O)C(=O)N[C@H](C(=O)NCC(=O)N1CCC[C@H]1C(=O)N[C@@H](CC(N)=O)C(=O)N[C@H](C(=O)N1CCC[C@H]1C(N)=O)[C@@H](C)O)C(C)C)[C@@H](C)O [Example 115] (H-K([γGlu-C20 diacid])CNTATCATQRLAHFLRHSSPNFGAIPSSTNVGPNTP-NH2; disulfide 2-7 (inferred); N-terminus assumed) | 0.04 nM | ≥ 200 µM | ≥ 200 µM | ≥ 200 µM | ≥ 200 µM | ≥ 200 µM | ≥ 200 µM | ≥ 200 µM | ≥ 200 µM | 0.157 nM
CC[C@H](C)[C@H](NC(=O)[C@H](C)NC(=O)CNC(=O)[C@H](Cc1ccccc1)NC(=O)[C@H](CC(N)=O)NC(=O)[C@@H]1CCCN1C(=O)[C@H](CO)NC(=O)[C@H](CO)NC(=O)[C@H](Cc1c[nH]cn1)NC(=O)[C@H](CCCNC(=N)N)NC(=O)[C@H](CC(C)C)NC(=O)[C@H](Cc1ccccc1)NC(=O)[C@H](CC(N)=O)NC(=O)[C@H](C)NC(=O)[C@H](CC(C)C)NC(=O)[C@H](CCCNC(=N)N)NC(=O)[C@H](CCC(N)=O)NC(=O)[C@@H](NC(=O)[C@H](C)NC(=O)[C@@H]1CSSC[C@H](NC(=O)[C@@H](N)CCCCNC(=O)CC[C@H](NC(=O)CC[C@H](NC(=O)CCCCCCCCCCCCCCCCCCC(=O)O)C(=O)O)C(=O)O)C(=O)N[C@@H](CC(N)=O)C(=O)N[C@@H]([C@@H](C)O)C(=O)N[C@@H](C)C(=O)N[C@@H]([C@@H](C)O)C(=O)N1)[C@@H](C)O)C(=O)N1CCC[C@H]1C(=O)N[C@@H](CO)C(=O)N[C@@H](CO)C(=O)N[C@H](C(=O)N1CCC[C@H]1C(=O)N[C@H](C(=O)NCC(=O)N1CCC[C@H]1C(=O)N[C@@H](CCCNC(=N)N)C(=O)N[C@H](C(=O)N[C@@H](Cc1ccc(O)cc1)C(N)=O)[C@@H](C)O)C(C)C)[C@@H](C)O [Example 119] (H-K([γGlu-γGlu-C20 diacid])CNTATCATQRLANFLRHSSPNFGAIPSSTPVGPRTY-NH2; disulfide 2-7) | 8.66 nM | 174 µM (≈ 791 µg/mL) | 112 µM (≈ 509 µg/mL) | ≥ 200 µM | 182 µM (≈ 827 µg/mL) | 32 µM (≈ 145 µg/mL) | 174 µM (≈ 791 µg/mL) | ≥ 200 µM | ≥ 200 µM | 42.8 nM

From patent US9023789B2, “Amylin analogs and pharmaceutical compositions thereof” (Novo Nordisk A/S, priority 2012, dated 2015)
